For one test, the system named is S. aureus UC 9213. In words: Murine Assay procedure: in vivo antimicrobial activity, survival of infected mice (S. aureus UC 9213). Also noted: species or system Staphylococcus aureus (infected female mice). As to conditions: dosed 1 h and 5 h after i.p. infection, survival daily for six days; for ED50: Staphylococcus aureus, UC9213, 144 h, oral, probit. The protocol:
(§1) Antimicrobial activity was tested in vivo using the Murine Assay procedure. Groups of female mice (six mice of 18-20 grams each) were injected intraperitoneally with bacteria which were thawed just prior to use and suspended in brain heart infusion with 4% brewers yeast (Staphylococcus aureus) or brain heart infusion (Streptococcus species). Antibiotic treatment at six dose levels per drug was administered one hour and five hours after affection by either oral intubation or subcutaneous routes. Survival was observed daily for six days. ED50 values based on mortality ratios were calculated using probit analysis. The subject compounds were compared against well-known antimicrobial as controls.

In the next test the test system is S. aureus UC 9271. Kind of test: Murine Assay procedure: in vivo antimicrobial activity, survival of infected mice (S. aureus UC 9271). Set-up: species or system Staphylococcus aureus (infected female mice). The following applies: Staphylococcus aureus. The protocol:
as §1

In a further test the test system is S. aureus UC 6685. Kind of test: Murine Assay procedure: in vivo antimicrobial activity, survival of infected mice (S. aureus UC 6685). Also noted: species or system Staphylococcus aureus (infected female mice). As to conditions: Staphylococcus aureus. As to the method: as §1
The test system of another test is S. pyogenes UC 152. In words: Murine Assay procedure: in vivo antimicrobial activity, survival of infected mice (S. pyogenes UC 152). Set-up: species or system S. pyogenes (infected female mice). As to conditions: Streptococcus pyogenes, UC152, 144 h, oral, dosed 1 h and 5 h after i.p. infection, survival daily for six days.
A further test relates to microbial infections. Kind of test: treatment of microbial infections (relative activity, test not given).

These results are taken from US5700799A, “Oxazolidinone antimicrobials containing substituted diazine moieties” (Pharmacia & Upjohn Company, priority 1996, dated 1997).

SMILES strings stand for the structures. Values joined by “and” are separate entries in the source; they are usually repeats but may differ in a detail not shown here. Identical values can stand only once. Like-named read-outs stand apart in the source and are kept apart here.

Broadly, the ED50 is the dose that gives a 50% effect, or the effect in half of the subjects. Compound `COCCN1CCN(c2ccc(N3C[C@H](CNC(C)=O)OC3=O)cc2F)CC1` [Example 36, (S)-N-[[3-[3-fluoro-4-[4-(2-methoxyethyl)-1-piperazinyl]phenyl]-2-oxo-5-oxazolidinyl]methyl]acetamide] had an ED50 in the test with S. aureus UC 9213 of 7.9 mg/kg.
For `CC(=O)NCC1CN(c2ccc(N3CCN(C(=O)OCCO)CC3)c(F)c2)C(=O)O1` (stereo not shown) [Example 6, 4-(4-(5-((acetylamino)methyl)-2-oxo-3-oxazolidinyl)-2-fluorophenyl)-1-piperazinecarboxylic acid, 2-hydroxyethyl ester], in the test with S. aureus UC 9213, the 50% effective dose (ED50) is 12 mg/kg.
In the case of `COC(=O)N1CCN(c2ccc(N3CC(CNC(C)=O)OC3=O)cc2F)CC1` (stereo not shown) [Example 1, 4-(4-(5-((Acetylamino)methyl)-2-oxo-3-oxazolidinyl)-2-fluorophenyl)-1-piperazinecarboxylic acid, methyl ester], the ED50 in the test with S. aureus UC 9213 is 3.8 mg/kg; in the test with S. aureus UC 9271 (UC9271, 144 h, S. aureus UC 9271, oral, dosed 1 h and 5 h after i.p. infection, survival daily for six days, read-out: ED50, PO) it was 4 mg/kg; in the test with S. aureus UC 6685 (UC6685, 144 h, S. aureus UC 6685, oral, dosed 1 h and 5 h after i.p. infection, survival daily for six days, read-out: ED50, PO), 4 mg/kg; in the test on S. pyogenes UC 152 it was 2.3 mg/kg. For the same compound, in the test with microbial infections, the “activity relative to the Formula I compounds” value is “most active”.
With `CN[C@H](CC(C)C)C(=O)N[C@H]1C(=O)N[C@@H](CC(N)=O)C(=O)N[C@H]2C(=O)N[C@H]3C(=O)N[C@H](C(=O)N[C@H](C(=O)O)c4cc(O)cc(O)c4-c4cc3ccc4O)[C@H](O)c3ccc(c(Cl)c3)Oc3cc2cc(c3O[C@@H]2O[C@H](CO)[C@@H](O)[C@H](O)[C@H]2O[C@H]2C[C@](C)(N)[C@H](O)[C@H](C)O2)Oc2ccc(cc2Cl)[C@H]1O` [Vancomycin, reference compound], the “Control, ED50, SC” value in the test with S. aureus UC 9213 (control antibiotic, subcutaneous, 8640 min) is 1.8 mg/kg and 1.9 mg/kg. The median effective dose (ED50) in the test with S. aureus UC 9271 (UC9271, sc, 144 h, read-out: Control, ED50, SC) was 5.9 mg/kg.
Regarding `CC(=O)NCC1CN(c2ccc(N3CCN(CCC#N)CC3)c(F)c2)C(=O)O1` (stereo not shown) [Example 5, N-((3-(4-(3-Fluoro-4-(4-(2-Cyanoethyl)-1-piperazinyl))phenyl)-2-oxo-5-oxazolidinyl)methyl)-acetamide], in the test on S. aureus UC 9213, the ED50 turned out to be 10 mg/kg.
As to `O=C(O)c1cn(C2CC2)c2cc(N3CCNCC3)c(F)cc2c1=O` [Ciprofloxacin, reference compound], the ED50 in the test with S. aureus UC 6685 (UC6685, sc, 144 h, read-out: Control, ED50, SC) is 6.6 mg/kg.
Turning to `COC(=O)N1CCN(c2ccc(N3CC(CNC(C)=O)OC3=O)cc2)CC1` (stereo not shown) [Example 3, 4-(4-(5-((Acetylamino)methyl)-2-oxo-3-oxazolidinyl)phenyl)-1-piperazinecarboxylic acid, methyl ester], the 50% effective dose (ED50) in the test on S. aureus UC 9213 is 10.4 mg/kg.
On the same count and under the same terms, the figure for `CC(=O)CCC(=O)N1CCN(c2ccc(N3CC(CNC(C)=O)OC3=O)cc2F)CC1` (racemic) [Example 10, (±)-N-[[3-[4-[4-(1,4-Dioxopentyl)-1-piperazinyl]-3-fluorophenyl]-2-oxo-5-oxazolidinyl]methyl)Acetamide] is 9.4 mg/kg.
On to `CC(=O)NCC1CN(c2ccc(N3CCN(CC#N)CC3)c(F)c2)C(=O)O1` (stereo not shown) [Example 9], for which the “activity relative to the Formula I compounds” value in the test with microbial infections is given as “most active”.
For the compound `CC(=O)NCC1CN(c2ccc(N3CCN(C(=O)c4ccccc4)CC3)c(F)c2)C(=O)O1` (stereo not shown) [Example 7, N-((3-(4-(3-Fluoro-4-((benzoyl)-1-piperazinyl))phenyl)-2-oxo-5-oxazolidinyl)methyl)-acetamide], the 50% effect level in the test on S. aureus UC 9213 (ED50) was put at a dose of 12 mg/kg.
In the test on S. aureus UC 9213, `COCCN1CCN(c2c(F)cc(N3C[C@H](CNC(C)=O)OC3=O)cc2F)CC1` [Example 37, (S)-N-[[3-[3,5-difluoro-4-[4-(2-methoxyethyl)-1-piperazinyl]phenyl]-2-oxo-5-oxazolidinyl]methyl]acetamide] came in with a median effective dose (ED50) of 12.6 mg/kg.
